Legend:
Assay in all cases: combination Emax (second highest fraction inhibited in the dose matrix, 72 h); higher = more inhibition; extreme values may be limits of the assay
MG-63 (Osteosarcoma) = test system: MG-63 (Osteosarcoma)
Outline: (§1)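 After 24 hours at 37°C and 5% CO2 in 1536-well plates, cells in DMEM/F12 or RPMI plus 10% FBS received two-drug dose matrices for 72 hours. Viability came from CellTiter-Glo 2.0 luminescence and was scaled as inhibition, anchored at 0 by vehicle wells and at 1 by blank wells. Combination Emax is taken as the second-highest inhibition in the matrix, and Bliss excess as the observed combination effect less EA + EB − EA·EB, with EA and EB the single-agent effects.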

[1] = test system: TOV-21G (Ovarian Carcinoma)
Outline: as §1

[2] = test system: Daudi (Burkitt's Lymphoma)
Outline: as §1

GCIY (Gastric Carcinoma) = test system: GCIY (Gastric Carcinoma)
Outline: as §1

[3] = test system: JURL-MK1 (Chronic Myelogenous Leukemia)
Outline: as §1

[4] = test system: HT-3 (Cervical Carcinoma)
Outline: as §1

[5] = test system: C2BBe1 (Colorectal Carcinoma)
Outline: as §1

[6] = test system: GRANTA-519 (B-Cell Non-Hodgkin's Lymphoma)
Outline: as §1

[7] = test system: MDA-MB-175-VII (Breast Carcinoma)
Outline: as §1

[8] = test system: ATN-1 (T-Lymphoblastic Leukemia)
Outline: as §1

SK-N-DZ (Neuroblastoma) = test system: SK-N-DZ (Neuroblastoma)
Outline: as §1

[9] = test system: SCC90 (Head and Neck Carcinoma)
Outline: as §1

DK-MG (Glioblastoma) = test system: DK-MG (Glioblastoma)
Outline: as §1

[10] = test system: COR-L105 (Lung Adenocarcinoma)
Outline: as §1

[11] = test system: SW1463 (Colorectal Carcinoma)
Outline: as §1

[12] = test system: CAL-85-1 (Breast Carcinoma)
Outline: as §1

A375 (Melanoma) = test system: A375 (Melanoma)
Outline: as §1

[13] = test system: MRK-nu-1 (Breast Carcinoma)
Outline: as §1

[14] = test system: SBC-3 (Small Cell Lung Carcinoma)
Outline: as §1

[15] = test system: NCI-H2023 (Non-Small Cell Lung Carcinoma)
Outline: as §1

Structure (SMILES)	combination Emax (MG-63 (Osteosarcoma))	combination Emax [1]	combination Emax [2]	combination Emax (GCIY (Gastric Carcinoma))	combination Emax [3]	combination Emax [4]	combination Emax [5]	combination Emax [6]	combination Emax [7]	combination Emax [8]	combination Emax (SK-N-DZ (Neuroblastoma))	combination Emax [9]	combination Emax (DK-MG (Glioblastoma))	combination Emax [10]	combination Emax [11]	combination Emax [12]	combination Emax (A375 (Melanoma))	combination Emax [13]	combination Emax [14]	combination Emax [15]
CN(CCO)CC[C@H](CSc1ccccc1)Nc1ccc(S(=O)(=O)NC(=O)c2ccc(N3CCC([C@@H](O)c4ccccc4-c4ccc(Cl)cc4)CC3)cc2)cc1S(=O)(=O)C(F)(F)F [AZD4320] + C[C@@H]1COCCN1C2=NC(=NC(=C2)C3(CC3)[S@](=N)(=O)C)C4=C5C=CNC5=NC=C4 [AZD6738] (first compound max 1 µM, 7x7, partner max 10 µM)	0.525	0.824	0.65	0.918	1	0.764	0.494	0.999	0.474	0.978	1	0.535	0.359	0.54	0.566	0.633	0.789	0.819	0.925	0.868
N#Cc1cnc(Nc2cc(NC[C@H]3CNCCO3)c(C(F)(F)F)cn2)cn1 [SRA737] + C=CCn1c(=O)c2cnc(Nc3ccc(N4CCN(C)CC4)cc3)nc2n1-c1cccc(C(C)(C)O)n1 [AZD1775] (first compound max 10 µM, partner max 1 µM)	0.867			0.611					0.276					0.383	0.629	0.476	0.615	0.724	0.86	0.594
C[C@@H](c1ccc2nccn2c1)n1nnc2ncc(-c3cnn(C)c3)nc21 [Savolitinib] + Cc1c2c(nn1C)CSCc1cc(n(C)n1)CSc1cc(c3ccccc3c1)OCCCc1c(C(=O)O)n(C)c3c-2c(Cl)ccc13 [AZD5991] (first compound max 1 µM, 7x7, partner max 1 µM)	0.257	0.174	0.196	0.176	0.129	0.207	0.134	0.141	0.185	0.904	0.255	0.454	0.417	0.165	0.255	0.0993	0.182	1	0.135	0.247
Cc1cc2ncnn2cc1Nc1ncc2c(n1)n(C1CCOCC1)c(=O)n2C [AZD7648] + C[C@@H]1COCCN1C2=NC(=NC(=C2)C3(CC3)[S@](=N)(=O)C)C4=C5C=CNC5=NC=C4 [AZD6738] (first compound max 10 µM, 7x7, partner max 10 µM)	0.503	0.579	0.826	0.774	1	0.536	0.311	0.808	0.341	0.995	0.949	0.325	0.273	0.531	0.543	0.594	0.687	0.633	0.71	0.796
CN(CCO)CC[C@H](CSc1ccccc1)Nc1ccc(S(=O)(=O)NC(=O)c2ccc(N3CCC([C@@H](O)c4ccccc4-c4ccc(Cl)cc4)CC3)cc2)cc1S(=O)(=O)C(F)(F)F [AZD4320] + CCN(CCO)CCCOc1ccc2c(Nc3cc(CC(=O)Nc4cccc(F)c4)[nH]n3)ncnc2c1 [AZD2811] (first compound max 1 µM, 7x7, partner max 1 µM)	0.86	0.476	0.351	0.554	0.929	0.177	0.224	0.993	0.413	0.939	0.787	0.715	0.255	0.215	0.204	0.397	0.506	0.863	0.523	
Cc1cc2ncnn2cc1Nc1ncc2c(n1)n(C1CCOCC1)c(=O)n2C [AZD7648] + CN(C)CCCOc1ccc(-c2ccc3ncc4c(c3c2)n(C2CCOCC2)c(=O)n4C)cn1 [AZD0156] (first compound max 10 µM, 7x7, partner max 1 µM)	0.331	0.169	0.444	0.437	0.406	0.143	0.211	0.249	0.288	0.481	0.31	0.353	0.27	0.339	0.159	0.371	0.269	0.515	0.482	0.586
